Source: patent US5294619A, “Arylpiperidine derivatives” (Pfizer Inc., priority 1992, dated 1994)

The compounds below were run against T1, dopamine-2 receptor (Rattus norvegicus, UniProt P61169) (assay: 3[H]-N-propylnorapomorphine binding assay (rat caudate and mesolimbic brain tissue)). Conditions: inhibition of 3[H]-N-propylnorapomorphine binding, 0.32 nM radioligand, pH 7.5, 25° C., 30 minutes.
T1 construct: The caudate and mesolimbic areas were then homogenized; from tissue; host or cells: rat brain, caudate and mesolimbic areas (washed membrane homogenate)
Procedure: The anti-psychotic activity of the compounds of the present invention as neuroleptic agents for the control of various psychotic disorders is determined primarily by a study of their ability to suppress ^3 [H]-N-propylnorapormorphine (dopamine-2 receptor) uptake in the brain of rats (in vitro). This study is carried out in a standard ^3 [H]-N-propylnorapomorphine binding assay test, where the amount of radioactivity is determined by liquid scintillation counting. In this way, the compounds can be rated in terms of their ability to reduce the amount of radioactivity caused by the aforesaid dopamine-2-receptor.
The N-substituted arylpiperidine compounds of Examples 1-18, respectively, were tested for anti-psychotic activity in rats, using the standard ^3 [H]-N-propylnorapomorphine binding assay test, according to the general procedure described by K. Fuxe et al., as reported in the European Journal of Pharmacology, Vol. 100, p. 127 (1984).
In this procedure, the brain was quickly removed from a decapitated rat and the caudate and mesolimbic areas were subsequently dissected therefrom to afford an average of ca. 150-180 mg. of material per rat. The caudate and mesolimbic areas were then homogenized on admixture with 40 volumes of ice-cold 15 mM Tris (i.e., tromethamine which is 2-amino-2-hydroxymethyl-1,3-propanediol) hydrochloride buffer having a pH of 7.5, which also contained 1.0 mM ethylenediaminetetraacetic acid (EDTA) and 0.01% ascorbic acid. The homogenate was next centrifuged at 35,000×G for a period of ten minutes. The supernatant liquid was then decanted, and the resulting pellet subsequently resuspended in 40 volumes of fresh, ice-cold Tris-EDTA buffer and homogenized, followed by incubation 37° C. for a period of ten minutes. The resulting homogenate was next re-centrifuged at 35,000×G for another ten-minute period, followed by decantation of the supernatant liquid. The pellet obtained in this manner was then resuspended again in the Tris-EDTA buffer, followed by a repeat of the centrifugation and decantation steps, with the final pellet being resuspended once more in 15 mM Tris-EDTA buffer at a concentration level of 11.25 mg./ml. This completed the production of the tissue preparation phase of the overall procedure.
. The final reaction mixture was next vortexed and incubated at 25° C. for a period of 30 minutes (using a 25° C. water bath for these purposes). […] Upon completion of the reaction step, the incubation period was terminated by subjecting the tubes to rapid filtration under vacuum through fiber filters, followed by two rinses with 5 ml. of ice-cold 15 mM Tris-EDTA buffer for each tube. The filters thus obtained were next soaked in 10 ml. of Aquasol 2 (a registered trademark name of New England Nuclear Corporation of Boston, Massachusetts for a liquid scintillation counter material), vortexed and then allowed to stand overnight (ca. 18 hours) at ambient temperatures in order to extract radioactivity. The amount of radioactivity was determined by liquid scintillation counting, using a Beta counter at 53% counting efficiency. The IC50 values were thereafter calculated by using standard statistical methods. On this basis, the ability of each test compound to reduce the amount of radioactivity caused by ^3 [H]-N-propylnorapomorphine is given as an IC50 value, expressed in terms of nM units.
In this way, the N-substituted arylpiperidine compounds of formula I that were reported as final products in Examples 1-18, respectively, were all assayed and found to be capable of inhibiting ^3 [H]-N-propylnorapomorphine binding at its dopamine-2 receptor site at the previously-indicated dose level tested. The results obtained in this manner are shown below in the following table, where the binding assay for each compound is reported in terms of the previously-discussed IC50 value: […]

T1 sequence (P61169 whole entry): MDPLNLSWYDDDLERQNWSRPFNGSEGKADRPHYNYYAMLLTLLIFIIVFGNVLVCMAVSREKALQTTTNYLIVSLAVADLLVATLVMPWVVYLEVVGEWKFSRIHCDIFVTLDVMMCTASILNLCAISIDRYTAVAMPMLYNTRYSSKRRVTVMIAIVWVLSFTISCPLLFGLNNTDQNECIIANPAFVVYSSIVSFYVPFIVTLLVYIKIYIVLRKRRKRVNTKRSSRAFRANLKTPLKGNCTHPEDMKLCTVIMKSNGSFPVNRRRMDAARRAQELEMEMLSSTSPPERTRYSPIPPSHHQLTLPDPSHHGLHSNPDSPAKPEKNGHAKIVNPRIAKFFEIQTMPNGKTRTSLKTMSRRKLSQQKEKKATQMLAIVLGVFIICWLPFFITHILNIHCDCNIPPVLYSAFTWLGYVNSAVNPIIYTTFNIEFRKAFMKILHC

Structure (SMILES) | IC50
Cc1nc2ccccn2c(=O)c1CCN1CCC(c2cccc3ccccc23)CC1 [Example 1, 3-{2-[4-(1-naphthyl)-piperidinyl]ethyl}-2-methyl-4H-pyrido[1,2-a]-pyrimidine-4-one] | 114 nM
O=C1CC2(CCCC2)CC(=O)N1CCCCN1CCC(c2cccc3ccccc23)CC1 [Example 3, 8-{4-[4-(1-naphthyl)-1-piperidinyl]-butyl}-8-azaspiro[4.5]decane-7,9-dione] | 239 nM
O=C1Cc2cc(CCN3CCC(c4cccc5ccccc45)CC3)ccc2N1 [Example 4, 5-{2-[4-(1-naphthyl)-1-piperidinyl]ethyl}-oxindole] | 184 nM
CC12CCC(C(=O)N(CCCCN3CCC(c4cccc5ccccc45)CC3)C1=O)C2(C)C (stereo not drawn) [Example 6, 3-{4-[4-(1-naphthyl)-1-piperidinyl]-n-butyl}-1,8,8-trimethyl-3-azabicyclo[3.2.1]octane-2,4-dione] | 169 nM
CC12CCC(C(=O)N(CCCCN3CCCC(c4cccc5ccccc45)C3)C1=O)C2(C)C (stereo not drawn) [Example 7] | 1110 nM
Oc1ccc(CCN2CCC(c3ccccc3)CC2)cc1 [Example 8, 4-[2-(4-phenyl-1-piperidinyl)ethyl]phenol] | 362 nM
Oc1ccc(CCN2CCC(c3cccc(C(F)(F)F)c3)CC2)cc1 [Example 9, 4-{2-[4-(3-trifluoromethylphenyl)-piperidinyl]ethyl}phenol] | 601 nM
FC(F)(F)c1cccc(C2CCN(CCOc3ccccc3)CC2)c1 [Example 10, 1-{2-[4-(3-trifluoromethylphenyl)-1-piperidinyl]ethyloxy}benzene] | 210 nM
COc1ccccc1C1CCCN(CCCCN2C(=O)CC3(CCCC3)CC2=O)C1 (stereo not drawn) [Example 15, 8-{4-[3-(2-methoxyphenyl)-1-piperidinyl]-n-butyl}-8-azaspiro[4.5]decane-7,9-dione] | 531 nM
COc1ccccc1C1CCN(CCCCN2C(=O)C3CCC(C)(C2=O)C3(C)C)CC1 (stereo not drawn) [Example 17] | 51.5 nM
COc1ccccc1C1CCCN(CCCCN2C(=O)C3CCC(C)(C2=O)C3(C)C)C1 (stereo not drawn) [Example 18, 3-{4-[3-(2-methoxyphenyl)-1-piperidinyl]-n-butyl]-1,8,8-trimethyl-3-azabicyclo[3.2.1]octane-2,4-dione] | 679 nM

More lines, now with the values ahead:

IC50 | Structure (SMILES)
196 nM | Nc1nc(-c2ccc(CCN3CCC(c4cccc5ccccc45)CC3)cc2)cs1 [Example 2, 4-{{4-{2-[4-(1-naphthyl)piperidinyl]ethyl}phenyl}}thiazole-2-amine]
169 nM | O=C1Cc2cc(CCN3CCCC(c4cccc5ccccc45)C3)ccc2N1 (stereo not drawn) [Example 5, 5-{2-[3-(1-naphthyl)-1-piperidinyl]ethyl}oxindole]
36.3 nM | COc1ccccc1C1CCN(CCc2ccc(-c3csc(N)n3)cc2)CC1 [Example 11, 4-{{4-{2-[4-(2-methoxyphenyl)-1-piperidinyl]ethyl}-phenyl}}-thiazole-2-amine]
150 nM | COc1ccccc1C1CCCN(CCc2ccc(-c3csc(N)n3)cc2)C1 (stereo not drawn) [Example 12, 4-{{4-{2-[3-(2-methoxyphenyl)-1-piperidinyl]ethyl}phenyl}}-thiazole-2-amine]
247 nM | COc1ccccc1C1CCCN(CCCCc2ccc(-c3csc(N)n3)cc2)C1 (stereo not drawn) [Example 13, 4-{{4-{4-[3-(2-methoxyphenyl)-1-piperidinyl]n-butyl}-phenyl}}thiazole-2amine]
51.6 nM | COc1ccccc1C1CCN(CCCCc2ccc(-c3csc(N)n3)cc2)CC1 [Example 14, 4-{{4-{4-[4-(2-methoxyphenyl)-1-piperidinyl]-n-butyl}-phenyl}}thiazole-2-amine]
52.2 nM | COc1ccccc1C1CCN(CCc2ccc3c(c2)CC(=O)N3)CC1 [Example 16, 5-{2-[4-(2-methoxyphenyl)-1-piperidinyl]ethyl}oxindole]
